The subject of data set [1] is Colorado potato beetle 1st-4th instar larvae and adults. Kind of data set: Contact toxicity to various development stages. It is filed as in vivo, Leptinotarsa decemlineata. The settings on record: 48 h incubation, 40% (w/w) suspension. How it is done: The plant samples were prepared according to the procedure described above. Nine extracts were used in this study. The plants (Table 8) were all collected during spring and summer of 2002. Samples were dried at room temperature and were ground for 5 min in a mill (M 20 IKA Universal Mill, IKA Group). […] For the dose-mortality bioassay, H. lupulus extract stock suspension was prepared as described above, containing 50% (w/w) plant extract/water with 10% acetone, and diluted in distilled water containing 10% acetone (w/w) to produce solutions containing 2.5, 5, 10, 20 and 40% (w/w).
Extract contact effects were determined on 1st-4th instar larvae as well as adult beetles. Twenty individuals for each development stage were transferred to Whatman filter paper in 90 mm disposable Petri dishes. The plant extract suspensions were shaken for 1 min and 2 ml of extract suspension was applied to each batch using a Potter spray tower set at 10 PSI with a 0.7 mm diameter fine droplet spray nozzle. After spraying, the insects were left to dry for 10 min at room temperature before transferring into a 1 l glass jar with fresh potato leaflets. The insects were incubated at 28±2° C. and 16:8 hr photophase. Controls were treated with 2 ml sterile distilled water containing 10% acetone. Imidacloprid (CONFIDOR SL, Bayer) was used as a standard control and three groups of 20 insects were treated with 2 ml of imidacloprid at the manufacturer's recommended rate (1.5 μl/ml) in distilled water. Mortalities were recorded at 24 h intervals for 7 d. Data were submitted to a randomized complete block statistical analysis. Three replicates of each developmental stage were sprayed with a plant extract suspension, three were used as control in each trial and three trials were performed each consisting of 3 treatment replicates.
Screening data were corrected for mortality in the controls using Abbott's formula (Abbott, J Econ Entomol 18:265-267 (1925)) and then normalised using an arcsine transformation. Transformed data were analyzed using ANOVA (P<0.05) and Tukeys mean separation (P≦0.05). All statistical analyses were carried out using MINITAB Release 14. Colorado potato beetle mortality obtained from dose-mortality bioassay utilizing H. lupulus was corrected for control mortality using Abbott's formula (supra). The corrected mortality data were analyzed using POLO-PC to estimate LC50, LC90 and the regression line slopes. Homogeneity of the regression lines between various developmental stages were tested using the maximum likelihood approximation test (P≦0.05).

The test system of data set [2] is 3rd instar Colorado potato beetle larvae. The data set can be described thus: Contact toxicity bioassay (Potter spray tower), 3rd instar larvae. The settings on record: 2 ml of 40% (w/w) plant suspension.
Method: Fifty grams of sample were placed into 1000 ml Erlemneyer flasks with 500 ml of methanol (Sigma). Flasks were covered with aluminum foil, placed on a horizontal shaker (HS 260 Basic, IKA Group) and shaken (120 oscillations/min for 24 h) in the dark. The suspension was filtered through two layers of cheese cloth, transferred into a 250 ml evaporating flask and excess methanol evaporated in a rotary evaporator (RV 05 Basic 1B, IKA Group) at 32±2° C. The resulting residue was weighted and eluted with sufficient distilled water containing 10% acetone (w/w) to yield a 40% (w/w) plant suspension.
Two ml of the distilled water containing 10% acetone was also applied to 20 larvae in each replicate as a negative control along with imidacloprid (CONFIDOR SL, Bayer) at manufacturer recommended rate as a positive control. After spraying, the larvae were transferred into 1000 ml glass jars and provided with fresh potato leaflets. The top of each jar was covered with cheese cloth and held at 28±2° C. and 16 h: 8 h light dark photo regime. Mortalities were recorded at 24 h intervals for 7 days. […] Each treatment was replicated three times within a trial and each trial was repeated three times.
Data were corrected for mortality in the controls using Abbotts formula and then normalized using arcsine transformation. Transformed data were analyzed using ANOVA (∝=0.05) and Tukeys mean separation (∝=0.05). […]
The test system is the same in data set [3]. The data set can be described thus: Residual (stomach poison) toxicity bioassay on treated potato leaflets. It is filed as in vivo, Leptinotarsa decemlineata. The settings on record: leaflets treated with 20% (w/w) extract. The procedure:
Stomach poison effects of the thirty plant extracts were assed by morbidity assays using 3rd instar larvae fed on treated potato leaflets.
Leaflets were treated with 2 ml of each plant extract suspension in distilled water containing 10% acetone with the Potter Spray Tower set at 10 PSI with a 0.7 mm internal diameter nozzle. After treatment, the leaflets were dried at room temperature for about 5 min. The cut end of each leaflet petiole was covered with a 30×55 mm piece of sterile cotton wool, which was moistened with 2 ml of water containing 1% NPK (20-20-20) fertilizer. This treatment ensured that the excised leaflet remained green for at least 7 days. Treated leaflets were transferred into 1000 ml glass jars to which 20 3rd instar larvae were added before incubation as described above. Mortalities were assessed at 24 hr intervals for 7 days. Control leaflets were treated with 2 ml of distilled water containing 10% acetone and the standard imidacloprid control was used as described above. Each treatment was repeated three times per block and blocks were completed in a randomized complete block design.

The subject of data set [4] is obliquebanded leafrollers, Choristoneura rosaceana. The data set can be described thus: Electroantennogram (EAG) responses of obliquebanded leafrollers. It is filed as in vivo. The conditions noted are these: 2 mg on filter paper. The procedure: (§1) Five natural-product sources were used per study. The plants (Table 1) were all collected from sandy lime soil during spring and summer of 2002 in Ta ? liçiftlik, Tokat, in a temperate region of Turkey, where the altitude is 600 m. Samples were dried at room temperature for 3 wk in the dark and subsequently were ground in a mill (M 20 IKA Universal Mill, IKA Group). Ground plants were stored in 2000-ml glass jars at 18±2° C. in the dark. Fifty-gram samples were placed into 1000-ml Erlenmeyer flasks with 500-ml of methanol (Sigma). […] The resulting residue was weighed and mixed with acetone to yield a 20% (w/w) plant suspension.
(§2) The EAG system and test protocols have been detailed by Stelinski et al. (2003 J. Chem. Ecol. 29: 403-422; Physiol. Entomol. 28: 97-107). Two milligrams of plant extracts (Table 1) or pheromone ((Z)11-14:Ac (lot #10010), Shin Etsu Tokyo, Japan) were diluted in acetone (20 μl total solution) and pipetted onto 1.4×0.5 cm strips of Whatman No. 1 filter paper. […] EAGs were measured as the maximum amplitude of depolarization elicited by 1-ml puffs of air through EAG-cartridges directed over live-insect preparations.
(§3) Male and female obliquebanded leafrollers and redbanded leafrollers were 2-4 d old when used for electroantennograms. […] For each sample tested, EAGs were recorded from ten moths of each sex. […]

The test system is the same in data set [5]. Kind of data set: Eight-arm olfactometer attraction study. The settings on record: 25 μl of 20% w/w extract in acetone, counts after 24 h. It is filed as in vivo. The source says: Male or female obliquebanded leafrollers used in this study were 1-3 d old. They were reared as described above. Discs, 55 mm in diameter, were cut from the sticky liners of pheromone traps (LPD Scenturian Guardpost, Suterra, Bend, Oreg.) intended for catching Lepidoptera. Each sticky disc was cleaned with acetone and placed into sterile 90-mm disposable Petri dish. Twenty millimeter diameter discs, cut from Whatman Number 1 filter paper, were placed centrally on top of the 55-mm sticky discs. Twenty-five microliters of each plant extract, diluted in acetone (20% w/w), was applied to the central filter paper disc. In the control treatment, 25-μl of acetone was applied to the disc. In the positive control, 25-μl of the pheromone component (Z)11-14:Ac was applied. In addition to positive control and negative or non-treatment control discs, a three-component obliquebanded leafroller pheromone in a rubber septum was also used as a standard. The septa were loaded with 0.485 mg of (Z)- and 0.015 mg (E)-11-tetradecenyl acetates and 0.026 mg of (Z)-11-tetradecenol (Hill and Roelofs 1979). […]
For the olfactometer test, the number of male insects attracted by each treatment was expressed as a percentage of the total number of insects tested in each replicate. […] The transformed data were analyzed using single-factor ANOVA (Minitab Release 14) (P=0.05) followed by Tukey's test (P=0.05). […]

Data set [6] has as its system redbanded leafrollers, Argyrotaenia velutinana. Kind of data set: Electroantennogram (EAG) responses of redbanded leafrollers. Type of data set: in vivo. The conditions noted are these: 2 mg on filter paper. The procedure:
as §1, §2, §3

Two compounds from patent US9271504B2, “Insecticidal compositions and uses thereof” (Board of Trustees of Michigan State University, priority 2005, dated 2016) can be followed below.

Where “and” joins values, the source holds several entries; their conditions need not be identical. Identical values can stand only once.

As to `O=[N+]([O-])NC1=NCCN1Cc1ccc(Cl)nc1` [Imidacloprid], the “% Mortality ± SEM, contact toxicity” value was 100% in data set [1] (1st Instar Larvae); 94.8% and 94.82 ± 3.05 a % in data set [1] (2nd Instar Larvae); 100% in data set [1] (3rd Instar Larvae); 11.5% and 11.57 ± 0.11 b % in data set [1] (4th Instar Larvae); 44.37 ± 3.32 a % in data set [1] (Adult). Further, the “Mortality % (mean ± SEM) caused by contact effect” value in data set [2] (24 h incubation at 28 ± 2° C.) and in data set [2] (48 h incubation at 28 ± 2° C.) was 100 ± 0.00 a A % throughout. For the same compound, the “Residual toxicities % (mean ± SEM)” value is 71.9% and 71.89 ± 0.25 a A % in data set [3] (48 h incubation at 28 ± 2° C.); 83.64 ± 0.23 a A % in data set [3] (72 h incubation at 28 ± 2° C.).
Regarding `CC/C=C\CCCCCCCCCCOC(C)=O` [Pheromone, (Z)11-14:Ac], the “EAG responses (mV ± SE) upon stimulation with 1 ml of air through stimulus cartridge” value in data set [4] (females) is given as 0.45 ± 0.06 ab mV; in data set [4] (males), 4.87 ± 0.32 a mV; in data set [6] (females), 0.43 ± 0.06 a mV; in data set [6] (males), 5.42 ± 0.40 a mV. The “Attraction (Mean ± SEM) %” value is 1.1% and 1.14 ± 1.12 b % in data set [5] (females, listed as Pheromone on paper); 4.05 ± 1.66 bc % in data set [5] (males).
